Measured values taken from patent US6759234B1, “Compositions and methods for administering to humans, peptides capable of down regulating an antigen specific immune response” (Immulogic Pharmaceutical Corporation, priority 1994, dated 2004).
Ends that are not written are not given here.

System: IgG and IgE antibodies to Fel d I, peptide X and peptide Y
Assay: Protocol P92-01 Phase I antibody studies and skin testing with the peptides (antigenicity)
Type: in vivo, human cat-allergic subjects
Details: Week 8
Experimental: This Phase I, open-label, dose-escalating safety study was conducted to determine the safety of the administration of the peptide X (SEQ ID NO 1) and peptide Y (SEQ ID NO 2). The antigenicity of the components was also evaluated, as was the activity of the peptides in altering skin test sensitivity.
Safety was assessed by evaluations of clinical laboratory parameters, physical examination, antibody studies and adverse experiences. Activity was assessed by analysis of skin testing. Prick and intradermal skin testing with both affinity purified native Fel d I and the peptides were performed one week prior to, and two and six weeks following the treatment period. Sixteen patients were treated with peptides X and Y during the study. […] Adverse events recorded with the trial were typical of those seen in open label allergy studies. Patients were all cat allergic individuals in this trial and tolerated dose orders of magnitude higher than can be achieved with conventional immunotherapy.

Row | Sequence | skin test reaction to the peptide in a single patient
1 | KRDVDLFLTGTPDEYVEQVAQYKALPV [peptide X] | substantial skin test reaction
2 | KALPVVLENARILKNCVDAKMTEEDKE [peptide Y] | delayed local reaction
